Assay: mn = molality of the nth substance listed, in mol/kg
Details: 101 kPa, Liquid, Capillary tube (Ostwald / Ubbelohde) method

CC(C)C[C@H](N)C(=O)O [L-leucine] + O
viscosity [mPa·s]
Details | 293.15 K | 298.15 K | 303.15 K | 308.15 K | 313.15 K
m1 = 0.025 | 1.02 | 0.8932 | 0.7948 | 0.7187 | 0.6481
m1 = 0.05 | 1.022 | 0.8936 | 0.8021 | 0.7237 | 0.6571
m1 = 0.1 | 1.026 | 0.8992 | 0.8011 | 0.7223 | 0.6533

NCC(=O)O [2-aminoacetic acid] + O
viscosity [mPa·s]
Details | 293.15 K | 298.15 K | 303.15 K | 308.15 K | 313.15 K
m1 = 0.025 | 1.011 | 0.8923 | 0.7994 | 0.7201 | 0.6549
m1 = 0.05 | 1.016 | 0.8947 | 0.8017 | 0.7213 | 0.6563
m1 = 0.1 | 1.022 | 0.9011 | 0.8056 | 0.7236 | 0.6582

O=C[C@H](O)[C@H](O)[C@H](O)CO [D-ribose] + O
viscosity [mPa·s]
Details | m1 = 0.05 | m1 = 0.055 | m1 = 0.06 | m1 = 0.065 | m1 = 0.07 | m1 = 0.075 | m1 = 0.08 | m1 = 0.085 | m1 = 0.09 | m1 = 0.1
293.15 K | 1.019 | 1.021 | 1.022 | 1.024 | 1.026 | 1.027 | 1.029 | 1.031 | 1.033 | 1.035
298.15 K | 0.9032 | 0.9047 | 0.906 | 0.9073 | 0.9085 | 0.91 | 0.9114 | 0.9127 | 0.9143 | 0.9168
303.15 K | 0.8071 | 0.8082 | 0.8092 | 0.8101 | 0.8113 | 0.8125 | 0.8135 | 0.8146 | 0.8157 | 0.8183
308.15 K | 0.7261 | 0.727 | 0.7277 | 0.7286 | 0.7292 | 0.7302 | 0.7313 | 0.7321 | 0.7333 | 0.7353
313.15 K | 0.657 | 0.6576 | 0.6581 | 0.6587 | 0.6595 | 0.6601 | 0.6607 | 0.6616 | 0.6626 | 0.6642

OC[C@H]1OC(OC[C@H]2OC(O[C@]3(CO)O[C@H](CO)[C@@H](O)[C@@H]3O)[C@H](O)[C@@H](O)[C@@H]2O)[C@H](O)[C@@H](O)[C@H]1O (stereo partly drawn) [D-(+)-raffinose] + O
viscosity [mPa·s]
Details | m1 = 0.05 | m1 = 0.055 | m1 = 0.06 | m1 = 0.065 | m1 = 0.07 | m1 = 0.075 | m1 = 0.08 | m1 = 0.085 | m1 = 0.09 | m1 = 0.1
293.15 K | 1.056 | 1.061 | 1.066 | 1.071 | 1.079 | 1.087 | 1.095 | 1.101 | 1.108 | 1.118
298.15 K | 0.9281 | 0.9343 | 0.94 | 0.9448 | 0.9488 | 0.9553 | 0.9597 | 0.9674 | 0.9724 | 0.9824
303.15 K | 0.8259 | 0.8302 | 0.8349 | 0.8402 | 0.8435 | 0.8485 | 0.8521 | 0.8569 | 0.8631 | 0.8719
308.15 K | 0.7393 | 0.7424 | 0.7474 | 0.7516 | 0.7547 | 0.7585 | 0.7625 | 0.7663 | 0.77 | 0.7775
313.15 K | 0.6657 | 0.6688 | 0.673 | 0.6764 | 0.6792 | 0.6822 | 0.6857 | 0.6881 | 0.6925 | 0.698
